Reference: paper PMC5053523, “In Vitro Antibacterial Activity of Rhodanine Derivatives against Pathogenic Clinical Isolates” (PLoS ONE, 2016)
≈ marks a conversion by molar mass, not a printed value. Read-outs that look alike come from different tables or passages of the source.

Columns and labels:
Acinetobacter baumannii [1] = experiment: MIC with/without sub-MIC colistin, Acinetobacter baumannii; format: cell-based
Experimental: (§1) The MIC of the rhodanines and control antibiotics, in the presence of a sub-inhibitory concentration of colistin or polymixin B nonapeptide (PMBN), against Gram-negative bacteria was evaluated as described before. The antibacterial activity of the rhodanines was further investigated against E. coli SM1411Δ acrAB, a strain that is deficient in the multidrug-resistant AcrAB efflux pump, as described before.

Pseudomonas aeruginosa [2] = experiment: MIC with/without PMBN, Pseudomonas aeruginosa; format: cell-based
Experimental: as §1

Pseudomonas aeruginosa [3] = experiment: MIC with/without sub-MIC colistin, Pseudomonas aeruginosa; format: cell-based
Experimental: as §1

Salmonella Typhimurium [4] = experiment: MIC with/without sub-MIC colistin, Salmonella Typhimurium; format: cell-based
Experimental: as §1

Klebsiella pneumoniae [5] = experiment: MIC with/without PMBN, Klebsiella pneumoniae; format: cell-based
Experimental: as §1

Klebsiella pneumoniae [6] = experiment: MIC with/without sub-MIC colistin, Klebsiella pneumoniae; format: cell-based
Experimental: as §1

Escherichia coli O157:H7 [7] = experiment: MIC with/without PMBN, Escherichia coli O157:H7; format: cell-based
Experimental: as §1

Salmonella Typhimurium [8] = experiment: MIC with/without PMBN, Salmonella Typhimurium; format: cell-based
Experimental: as §1

Escherichia coli O157:H7 [9] = experiment: MIC with/without sub-MIC colistin, Escherichia coli O157:H7; format: cell-based
Experimental: as §1

Acinetobacter baumannii [10] = experiment: MIC with/without PMBN, Acinetobacter baumannii; format: cell-based
Experimental: as §1

Escherichia coli Δ acrAB = experiment: MIC against E. coli 1411 and AcrAB efflux pump deficient E. coli SM1411Δ acrAB; format: cell-based
Experimental: as §1

MRSA USA300 = experiment: MIC against MRSA USA300 with and without 4% human serum albumin; format: cell-based, Staphylococcus aureus; conditions: Staphylococcus aureus, read-out: MIC against MRSA USA300
Experimental: The minimum inhibitory concentration (MIC) and the minimum bactericidal concentration (MBC) of rhodanine compounds 1 to 7 were determined against various Gram-positive and Gram-negative pathogens (S1 Table) following the guidelines of the Clinical and Laboratory Standards Institute (CLSI)[4]. The broth microdilution technique was used, followed by subculturing on agar plates that were rhodanine—free. […] The MICs reported represent the lowest concentration of each compound necessary to inhibit bacterial growth and the MBCs represent the lowest concentration required to reduce the initial bacterial inoculum by ≥ 99.9%.
The antimicrobial activity of rhodanine compounds in the presence of 4% human serum albumin (HSA) was tested against MRSA USA300. The MICs of rhodanine compounds and control antibiotics (vancomycin and daptomycin) were tested as described in the methods above using tryptic soy broth spiked with 4% HSA. We also synthesized and tested three more compounds, ethyl ester and amide of rhodanine 2 (Rh 8 and Rh 10, respectively) and ethyl ester of rhodanine 3 (Rh 9) to determine the influence of a carboxyl group modification toward anti-MRSA activity and human serum albumin (HSA) binding.

Mycobacterium smegmatis = experiment: Broth microdilution MIC/MBC, Mycobacterium smegmatis; format: cell-based; conditions: Mycolicibacterium smegmatis, ATCC14468, M. Smegmatis ATCC 14468
[11] = Acinetobacter baumannii ATCC BAA747, colistin (+) […], read-out: MIC
[12] = Acinetobacter baumannii ATCC BAA19606, colistin (+) […], read-out: MIC
[13] = Acinetobacter baumannii, ATCCBAA747
[14] = Acinetobacter baumannii, ATCCBAA19606
[15] = Pseudomonas aeruginosa ATCC 9721, PMBN (+) 4 μg/mL, read-out: MIC
[16] = Pseudomonas aeruginosa, ATCC9721
[17] = Pseudomonas aeruginosa ATCC 921, colistin (+) […], read-out: MIC
[18] = Pseudomonas aeruginosa, ATCC921
[19] = Salmonella Typhimurium ATCC 700720, colistin (+) […], read-out: MIC
[20] = Salmonella enterica, ATCC 700720 / TYPHIMURIUM
[21] = Klebsiella pneumoniae ATCC BAA 1706, PMBN (+) 4 μg/mL
[22] = Klebsiella pneumoniae ATCC BAA 2146, PMBN (+) 4 μg/mL
[23] = Klebsiella pneumoniae ATCC BAA 2146, colistin (+) […]
[24] = Escherichia coli O157:H7 ATCC 35150, PMBN (+) 4 μg/mL, read-out: MIC
[25] = Escherichia coli O157:H7 ATCC 700728, PMBN (+) 4 μg/mL, read-out: MIC
[26] = Salmonella Typhimurium ATCC 700720, PMBN (+) 4 μg/mL, read-out: MIC
[27] = Escherichia coli O157:H7 ATCC 35150, colistin (+) […], read-out: MIC
[28] = Escherichia coli O157:H7 ATCC 700728, colistin (+) […], read-out: MIC
[29] = Acinetobacter baumannii ATCC BAA747, PMBN (+) 4 μg/mL, read-out: MIC
[30] = Acinetobacter baumannii ATCC BAA19606, PMBN (+) 4 μg/mL, read-out: MIC
[31] = E.coli 1411 SM (Δ acrAB, AcrAB efflux pump deficient)

Structure (SMILES) | MIC (Acinetobacter baumannii [1]; [11]) | MIC (Acinetobacter baumannii [1]; [12]) | MIC (Pseudomonas aeruginosa [2]; [15]) | MIC (Pseudomonas aeruginosa [3]; [17]) | MIC (Salmonella Typhimurium [4]; [19]) | MIC (Klebsiella pneumoniae [5]; [21]) | MIC (Klebsiella pneumoniae [5]; [22]) | MIC (Klebsiella pneumoniae [5]; Klebsiella pneumoniae, BAA1706) | MIC (Klebsiella pneumoniae [5]; Klebsiella pneumoniae, BAA2146) | MIC (Klebsiella pneumoniae [6]; [23]) | MIC (Klebsiella pneumoniae [6]; Klebsiella pneumoniae, BAA2146) | MIC (Escherichia coli O157:H7 [7]; [24]) | MIC (Escherichia coli O157:H7 [7]; [25]) | MIC (Salmonella Typhimurium [8]; [26]) | MIC (Escherichia coli O157:H7 [9]; [27]) | MIC (Escherichia coli O157:H7 [9]; [28]) | MIC (Acinetobacter baumannii [10]; [29]) | MIC (Acinetobacter baumannii [10]; [30]) | MIC (Escherichia coli Δ acrAB; E.coli 1411) | MIC (Escherichia coli Δ acrAB; [31]) | also measured
CC(=O)O[C@H]1C[C@@]2(C)[C@@H](C[C@@H](O)[C@H]3[C@@]4(C)CC[C@@H](O)[C@@H](C)[C@@H]4CC[C@@]32C)/C1=C(\CCC=C(C)C)C(=O)O [Fusidic acid, fusidic acid, reference compound] | 1 µM (≈ 0.517 µg/mL) | ≤0.5 µM | 4 µM (≈ 2.07 µg/mL) | >64 µM | 64 µM (≈ 33.1 µg/mL) | 16 µM (≈ 8.27 µg/mL) | >64 µM | > 128 µM | > 128 µM | >64 µM | > 128 µM | 4 µM (≈ 2.07 µg/mL) | 32 µM (≈ 16.5 µg/mL) | 64 µM (≈ 33.1 µg/mL) | ≤0.5 µM | ≤0.5 µM | 2 µM (≈ 1.03 µg/mL) | 2 µM (≈ 1.03 µg/mL) | > 64 µM | 4 µM (≈ 2.07 µg/mL) | MIC (Acinetobacter baumannii [1]; [13]): > 128 µM; MIC (Acinetobacter baumannii [1]; [14]): 128 µM (≈ 66.1 µg/mL); MIC (Pseudomonas aeruginosa [2]; [16]): > 128 µM; MIC (Pseudomonas aeruginosa [3]; [18]): > 128 µM; MIC (Salmonella Typhimurium [4]; [20]): > 128 µM; MIC (Escherichia coli O157:H7 [7]; Escherichia coli, ATCC35150): > 256 µM; MIC (Escherichia coli O157:H7 [7]; Escherichia coli, ATCC700728): > 128 µM; MIC (Salmonella Typhimurium [8]; [20]): > 128 µM; MIC (Escherichia coli O157:H7 [9]; Escherichia coli, ATCC35150): > 128 µM; MIC (Escherichia coli O157:H7 [9]; Escherichia coli, ATCC700728): > 128 µM; MIC (Acinetobacter baumannii [10]; [13]): > 128 µM; MIC (Acinetobacter baumannii [10]; [14]): 128 µM (≈ 66.1 µg/mL)
CCCCCCCCCC(=O)N[C@@H](Cc1c[nH]c2ccccc12)C(=O)N[C@H](CC(N)=O)C(=O)N[C@@H](CC(=O)O)C(=O)N[C@@H]1C(=O)NCC(=O)N[C@@H](CCCN)C(=O)N[C@@H](CC(=O)O)C(=O)N[C@H](C)C(=O)N[C@@H](CC(=O)O)C(=O)NCC(=O)N[C@H](CO)C(=O)N[C@@H]([C@H](C)CC(=O)O)C(=O)N[C@@H](CC(=O)c2ccccc2N)C(=O)O[C@@H]1C [Daptomycin, reference compound] | >64 µM | >64 µM | >64 µM | >64 µM | >64 µM | >64 µM | >64 µM | > 128 µM | > 128 µM | >64 µM | > 128 µM | >256 µM | >64 µM | >128 µM | >64 µM | >64 µM | >64 µM | >64 µM | > 64 µM | > 64 µM | MIC (Acinetobacter baumannii [1]; [13]): > 128 µM; MIC (Acinetobacter baumannii [1]; [14]): > 128 µM; MIC (MRSA USA300; 24 h, Media TSB + 4% HSA): 64 µM; MIC (MRSA USA300; Media TSB): 4 µM (≈ 6.48 µg/mL); MIC (Pseudomonas aeruginosa [2]; [16]): > 128 µM; MIC (Pseudomonas aeruginosa [3]; [18]): > 128 µM; MIC (Salmonella Typhimurium [4]; [20]): > 128 µM; MIC (Escherichia coli O157:H7 [7]; ATCC35150, Escherichia coli O157:H7 ATCC 35150, PMBN (-), read-out: MIC): > 256 µM; MIC (Escherichia coli O157:H7 [7]; ATCC700728, Escherichia coli O157:H7 ATCC 700728, PMBN (-), read-out: MIC): > 128 µM; MIC (Salmonella Typhimurium [8]; [20]): > 128 µM; MIC (Escherichia coli O157:H7 [9]; ATCC35150, Escherichia coli O157:H7 ATCC 35150, colistin (-), read-out: MIC): > 128 µM; MIC (Escherichia coli O157:H7 [9]; ATCC700728, Escherichia coli O157:H7 ATCC 700728, colistin (-), read-out: MIC): > 128 µM; MIC (Acinetobacter baumannii [10]; [13]): > 128 µM; MIC (Acinetobacter baumannii [10]; [14]): > 128 µM
CO[C@H]1/C=C/O[C@@]2(C)Oc3c(C)c(O)c4c(O)c(c(/C=N/N5CCN(C)CC5)c(O)c4c3C2=O)NC(=O)/C(C)=C\C=C\[C@H](C)[C@H](O)[C@@H](C)[C@@H](O)[C@@H](C)[C@H](OC(C)=O)[C@@H]1C [Rifampicin, rifampicin, reference compound] |  |  |  |  |  |  |  |  |  |  |  |  |  |  |  |  |  |  |  |  | MBC (Mycobacterium smegmatis; read-out: MBC): > 64 µM; MIC (Mycobacterium smegmatis; read-out: MIC): 32 µM (≈ 26.3 µg/mL)
CC[C@H]1OC(=O)[C@H](C)[C@@H](O[C@H]2C[C@@](C)(OC)[C@@H](O)[C@H](C)O2)[C@H](C)[C@@H](O[C@@H]2O[C@H](C)C[C@H](N(C)C)[C@H]2O)[C@](C)(O)C[C@@H](C)C(=O)[C@H](C)[C@@H](O)[C@]1(C)O [Erythromycin, erythromycin, reference compound] | 1 µM (≈ 0.734 µg/mL) | 2 µM (≈ 1.47 µg/mL) | 1 µM (≈ 0.734 µg/mL) | 16 µM (≈ 11.7 µg/mL) | 16 µM (≈ 11.7 µg/mL) | 64 µM (≈ 47 µg/mL) | >64 µM | > 128 µM | > 128 µM | >64 µM | > 128 µM | 4 µM (≈ 2.94 µg/mL) | 2 µM (≈ 1.47 µg/mL) | 4 µM (≈ 2.94 µg/mL) | ≤0.5 µM | ≤0.5 µM | ≤0.5 µM | 2 µM (≈ 1.47 µg/mL) | > 64 µM | 2 µM (≈ 1.47 µg/mL) | MIC (Acinetobacter baumannii [1]; ATCCBAA747, Acinetobacter baumannii ATCC BAA747, colistin (-), read-out: MIC): 4 µM (≈ 2.94 µg/mL); MIC (Acinetobacter baumannii [1]; ATCCBAA19606, Acinetobacter baumannii ATCC BAA19606, colistin (-), read-out: MIC): 16 µM (≈ 11.7 µg/mL); MIC (Pseudomonas aeruginosa [2]; ATCC9721, Pseudomonas aeruginosa ATCC 9721, PMBN (-), read-out: MIC): 64 µM (≈ 47 µg/mL); MIC (Pseudomonas aeruginosa [3]; ATCC921, Pseudomonas aeruginosa ATCC 921, colistin (-), read-out: MIC): 64 µM (≈ 47 µg/mL); MIC (Salmonella Typhimurium [4]; Salmonella enterica, ATCC 700720 / TYPHIMURIUM, Salmonella Typhimurium ATCC 700720, colistin (-), read-out: MIC): 64 µM (≈ 47 µg/mL); MIC (Escherichia coli O157:H7 [7]; Escherichia coli, ATCC35150): 128 µM (≈ 93.9 µg/mL); MIC (Escherichia coli O157:H7 [7]; Escherichia coli, ATCC700728): 32 µM (≈ 23.5 µg/mL); MIC (Salmonella Typhimurium [8]; Salmonella enterica, ATCC 700720 / TYPHIMURIUM, Salmonella Typhimurium ATCC 700720, PMBN (-), read-out: MIC): 64 µM (≈ 47 µg/mL); MIC (Escherichia coli O157:H7 [9]; Escherichia coli, ATCC35150): 32 µM (≈ 23.5 µg/mL); MIC (Escherichia coli O157:H7 [9]; Escherichia coli, ATCC700728): 32 µM (≈ 23.5 µg/mL); MIC (Acinetobacter baumannii [10]; ATCCBAA747, Acinetobacter baumannii ATCC BAA747, PMBN (-), read-out: MIC): 4 µM (≈ 2.94 µg/mL); MIC (Acinetobacter baumannii [10]; ATCCBAA19606, Acinetobacter baumannii ATCC BAA19606, PMBN (-), read-out: MIC): 16 µM (≈ 11.7 µg/mL)
